Source: PMC6253998, “Ring-substituted 4-Hydroxy-1H-quinolin-2-ones: Preparation and Biological Activity” (Molecules, 2009)
≈ marks a conversion by molar mass, not a printed value. Where two headings read alike, the source gives them in different places.

What was measured:
[1] = system: spinach chloroplasts; test: Inhibition of oxygen evolution rate (OER) / photosynthetic electron transport in spinach chloroplasts; format: biochemical, Spinacia oleracea L.; conditions: for IC50: DCPIP photoreduction, pH 7.2
Description: Chloroplasts were prepared from spinach (Spinacia oleracea L.) according to Masarovicova and Kralova. The inhibition of photosynthetic electron transport (PET) in spinach chloroplasts was determined spectrophotometrically (Genesys 6, Thermo Scientific, U.S.A.) using an artificial electron acceptor 2,6-dichlorophenol-indophenol (DCPIP) according to Kralova et al. and the rate of photosynthetic electron transport was monitored as a photoreduction of DCPIP. The measurements were carried out in phosphate buffer (0.02 mol/L, pH 7.2) containing sucrose (0.4 mol/L), MgCl2 (0.005 mol/L) and NaCl (0.015 mol/L). The chlorophyll content was 30 mg/L in these experiments and the samples were irradiated (~100 W/m^2) from 10 cm distance with a halogen lamp (250 W) using a 4 cm water filter to prevent warming of the samples (suspension temperature 22 °C). The studied compounds were dissolved in DMSO due to their limited water solubility. […] The inhibitory efficiency of the studied compounds was expressed by IC50 values, i.e. by molar concentration of the compounds causing 50% decrease in the oxygen evolution rate relative to the untreated control.

[2] = Lipophilicity HPLC determination (capacity factor k / log k); format: physicochemical; conditions: RP-HPLC, C18 column, MeOH 55.0% / H2O 45.0%, isocratic
Description: Hydrophobicities (log P/Clog P values) of the compounds 1-12 were calculated using two commercially available programs and also measured by means of the reversed phase high performance liquid chromatography (RP-HPLC) method for lipophilicity measurement. The procedure was performed under isocratic conditions with methanol as an organic modifier in the mobile phase using an end-capped non-polar C18 stationary RP column. The capacity factors k were determined and subsequent log k values were calculated.
The HPLC separation module Waters Alliance 2695 XE and Waters Photodiode Array Detector 2996 (Waters Corp., Milford, MA, U.S.A.) were used. A Symmetry® C18 5 μm, 4.6 × 250 mm, Part No. WAT054275, (Waters Corp., Milford, MA, U.S.A.) chromatographic column was used. The HPLC separation process was monitored by Millennium32® Chromatography Manager Software, Waters 2004 (Waters Corp., Milford, MA, U.S.A.). The mixture of MeOH p.a. (55.0%) and H2O-HPLC – Mili-Q Grade (45.0%) was used as a mobile phase. The total flow of the column was 0.9 mL/min, injection 30 μL, column temperature 30 °C and sample temperature 10 °C. The detection wavelength 210 nm was chosen. The KI methanolic solution was used for the dead time (TD) determination. Retention times (tR) were measured in minutes. The capacity factors k were calculated using the Millennium32® Chromatography Manager Software according to formula k = (tR - tD) / tD, where tR is the retention time of the solute, whereas tD denotes the dead time obtained via an unretained analyte. Log k, calculated from the capacity factor k, is used as the lipophilicity index converted to log P scale.

[3] = system: Trichosporon beigelii 1188; test: In vitro antifungal broth microdilution test; format: cell-based; conditions: Trichosporon beigelii, 1188, RPMI 1640, pH 7.0, 35 °C, read-out: MIC/IC80 TB
Description: The broth microdilution test was used for the assessment of in vitro antifungal activity of the synthesized compounds against Candida albicans ATCC 44859 (CA), Candida tropicalis 156 (CT), Candida krusei ATCC 6258 (CK), Candida glabrata 20/I (CG), Trichosporon beigelii 1188 (TB), Aspergillus fumigatus 231 (AF), Absidia corymbifera 272 (AC), and Trichophyton mentagrophytes 445 (TM). Fluconazole (FLU) was used as the standard of a clinically used antimycotic drug. The procedure was performed with twofold dilution of the compounds in RPMI 1640 (Sevapharma a.s., Prague, Czech Republic) buffered to pH 7.0 with 0.165 mol of 3-morpholino-propane-1-sulfonic acid (MOPS, Sigma, Germany). The final concentrations of the compounds ranged from 500 to 0.975 μmol/l. Drug–free controls were included. The MIC was defined as an 80% or greater (IC80) reduction of growth in comparison with the control. The values of MICs were determined after 24 and 48 h of static incubation at 35 °C. For T. mentagrophytes, the final MICs were determined after 72 and 120 h of incubation.

[4] = system: Candida krusei ATCC 6258; test: In vitro antifungal broth microdilution test; format: cell-based; conditions: Pichia kudriavzevii
Description: (§1) Fluconazole (FLU) was used as the standard of a clinically used antimycotic drug. The procedure was performed with twofold dilution of the compounds in […]., Prague, Czech Republic) buffered to pH 7.0 with 0.165 mol of 3-morpholino-propane-1-sulfonic acid (MOPS, Sigma, Germany). […] Drug-free controls were included. The MIC was defined as an 80% or greater (IC80) reduction of growth in comparison with the control.

[5] = system: Candida glabrata 20/I; test: In vitro antifungal broth microdilution test; format: cell-based; conditions: Nakaseomyces glabratus, 20/I
Description: as §1

[6] = system: Candida tropicalis 156; test: In vitro antifungal broth microdilution test; format: cell-based
Description: as §1

[7] = system: Aspergillus fumigatus 231; test: In vitro antifungal broth microdilution test; format: cell-based
Description: as §1

[8] = system: Candida albicans ATCC 44859; test: In vitro antifungal broth microdilution test; format: cell-based; conditions: Candida albicans
Description: as §1

[9] = system: Absidia corymbifera 272; test: In vitro antifungal broth microdilution test; format: cell-based
Description: as §1

[10] = system: Trichophyton mentagrophytes 445; test: In vitro antifungal broth microdilution test; format: cell-based
Description: as §1

[11] = ATCC6258, 24h, RPMI 1640, pH 7.0, 35 °C, read-out: MIC/IC80 CK
[12] = ATCC6258, 48h, RPMI 1640, pH 7.0, 35 °C, read-out: MIC/IC80 CK
[13] = 24h, RPMI 1640, pH 7.0, 35 °C, read-out: MIC/IC80 CG
[14] = 48h, RPMI 1640, pH 7.0, 35 °C, read-out: MIC/IC80 CG
[15] = Candida tropicalis, 156, 24h, RPMI 1640, pH 7.0, 35 °C, read-out: MIC/IC80 CT
[16] = Candida tropicalis, 156, 48h, RPMI 1640, pH 7.0, 35 °C, read-out: MIC/IC80 CT
[17] = Aspergillus fumigatus, 231, 24h, RPMI 1640, pH 7.0, 35 °C, read-out: MIC/IC80 AF
[18] = Aspergillus fumigatus, 231, 48h, RPMI 1640, pH 7.0, 35 °C, read-out: MIC/IC80 AF
[19] = ATCC44859, 24h, RPMI 1640, pH 7.0, 35 °C, read-out: MIC/IC80 CA
[20] = ATCC44859, 48h, RPMI 1640, pH 7.0, 35 °C, read-out: MIC/IC80 CA
[21] = Lichtheimia corymbifera, 272, 24h, RPMI 1640, pH 7.0, 35 °C, read-out: MIC/IC80 AC
[22] = Lichtheimia corymbifera, 272, 48h, RPMI 1640, pH 7.0, 35 °C, read-out: MIC/IC80 AC
[23] = Trichophyton mentagrophytes, 445, 72h, RPMI 1640, pH 7.0, 35 °C, read-out: MIC/IC80 TM
[24] = Trichophyton mentagrophytes, 445, 120h, RPMI 1640, pH 7.0, 35 °C, read-out: MIC/IC80 TM

SMILES | IC50 [1] [µM] | log k [2] | MIC ([3]; 24h) [µM] | MIC ([3]; 48h) [µM] | MIC [4, 11] [µM] | MIC [4, 12] [µM] | MIC [5, 13] [µM] | MIC [5, 14] [µM] | MIC [6, 15] [µM] | MIC [6, 16] [µM] | MIC [7, 17] [µM] | MIC [7, 18] [µM] | MIC [8, 19] [µM] | MIC [8, 20] [µM] | MIC [9, 21] [µM] | MIC [9, 22] [µM] | MIC [10, 23] [µM] | MIC [10, 24] [µM] | other results
CCOC(=O)c1c(O)c2ccccc2[nH]c1=O [Compound 9, Ethyl 4-hydroxy-2-oxo-1,2-dihydroquinoline-3-carboxylate] | 494 | 0.4595 | > 500 | > 500 | > 500 | > 500 | > 500 | > 500 | > 500 | > 500 | > 500 | > 500 | > 500 | > 500 | > 500 | > 500 | > 500 | > 500 | OER inhibition effectiveness relative to compound 1 [1]: approximately twice as effective as compound 1
Cc1ccc2[nH]c(=O)cc(O)c2c1 [Compound 2, 4-Hydroxy-6-methylquinolin-2(1H)-one] | 157 | 0.3307 | > 500 | > 500 | > 500 | > 500 | > 500 | > 500 | > 500 | > 500 | > 500 | > 500 | > 500 | > 500 | > 500 | > 500 | > 500 | > 500 | 
OC(Cn1cncn1)(Cn1cncn1)c1ccc(F)cc1F [FLU, Fluconazole, reference compound] |  |  | 0.24 (≈ 0.0735 µg/mL) | 0.48 (≈ 0.147 µg/mL) | 3.91 (≈ 1.2 µg/mL) | 15.6 (≈ 4.78 µg/mL) | 0.98 (≈ 0.3 µg/mL) | 3.91 (≈ 1.2 µg/mL) | 0.12 (≈ 0.0368 µg/mL) | > 125 | > 125 | > 125 | 0.06 (≈ 0.0184 µg/mL) | 0.12 (≈ 0.0368 µg/mL) | > 125 | > 125 | 1.95 (≈ 0.597 µg/mL) | 3.91 (≈ 1.2 µg/mL) | 
O=C(O)c1ccc2[nH]c(=O)cc(O)c2c1O [Compound 3, 4,5-Dihydroxy-2-oxo-1,2-dihydroquinoline-6-carboxylic acid] | 346 | 0.0002 | 250 (≈ 55.3 µg/mL) | > 500 | > 500 | > 500 | 250 (≈ 55.3 µg/mL) | 250 (≈ 55.3 µg/mL) | 500 (≈ 111 µg/mL) | > 500 | > 500 | > 500 | 125 (≈ 27.6 µg/mL) | 125 (≈ 27.6 µg/mL) | > 500 | > 500 | > 500 | > 500 | 
O=C(/C=C/c1ccccc1)Nc1c(O)c2ccccc2[nH]c1=O [Compound 7, (2E)-N-(4-Hydroxy-2-oxo-1,2-dihydroquinolin-3-yl)-3-phenylprop-2-enamide] | 916 | 0.0128 | > 125 | > 125 | > 125 | > 125 | > 125 | > 125 | > 125 | > 125 | > 125 | > 125 | > 125 | > 125 | > 125 | > 125 | > 125 | > 125 | 
O=c1cc(O)c2ccccc2[nH]1 [Compound 1, 4-Hydroxyquinolin-2(1H)-one] | 925 | 0.0664 | > 500 | > 500 |  |  |  |  |  |  |  |  |  |  |  |  |  |  | MIC ([4]; ATCC6258, 24 h, pH 7, read-out: MIC/IC80 CK): > 500 µM; MIC ([4]; ATCC6258, 48 h, pH 7, read-out: MIC/IC80 CK): > 500 µM; MIC ([5]; 24 h, pH 7, read-out: MIC/IC80 CG): > 500 µM; MIC ([5]; 48 h, pH 7, read-out: MIC/IC80 CG): > 500 µM; MIC ([6]; Candida tropicalis, 156, 24 h, pH 7, read-out: MIC/IC80 CT): > 500 µM; MIC ([6]; Candida tropicalis, 156, 48 h, pH 7, read-out: MIC/IC80 CT): > 500 µM; MIC ([7]; Aspergillus fumigatus, 231, 24 h, pH 7, read-out: MIC/IC80 AF): > 500 µM; MIC ([7]; Aspergillus fumigatus, 231, 48 h, pH 7, read-out: MIC/IC80 AF): > 500 µM; MIC ([8]; ATCC44859, 24 h, pH 7, read-out: MIC/IC80 CA): > 500 µM; MIC ([8]; ATCC44859, 48 h, pH 7, read-out: MIC/IC80 CA): > 500 µM; MIC ([9]; Lichtheimia corymbifera, 272, 24 h, pH 7, read-out: MIC/IC80 AC): > 500 µM; MIC ([9]; Lichtheimia corymbifera, 272, 48 h, pH 7, read-out: MIC/IC80 AC): > 500 µM; MIC ([10]; Trichophyton mentagrophytes, 445, 72 h, pH 7, read-out: MIC/IC80 TM): > 500 µM; MIC ([10]; Trichophyton mentagrophytes, 445, 120 h, pH 7, read-out: MIC/IC80 TM): > 500 µM
Nc1c(O)c2ccccc2[nH]c1=O [Compound 6, 3-Amino-4-hydroxyquinolin-2(1H)-one] | 775 | 0.0004 | > 500 | > 500 | > 500 | > 500 | > 500 | > 500 | > 500 | > 500 | > 500 | > 500 | > 500 | > 500 | > 500 | > 500 | > 500 | > 500 | 
